According to US9321762B2, “Quinazoline compounds, method for preparing the same and use thereof” (DEVELOPMENT CENTER FOR BIOTECHNOLOGY, priority 2013, dated 2016):
Read-outs that look alike come from different tables or passages of the source.

Molecular target: T1, B-Raf kinase (Homo sapiens, UniProt P15056)
T1 construct: purchased Upstate Biotechnology
Assay: B-Raf kinase assay ([33P] incorporation into MEK1(K97R))
Format: biochemical
Conditions: 8 μM ATP, read-out: IC50 against B-Raf kinase
Procedure: Inhibition of kinase activity by a test compound disclosed herein was estimated by quantifying the amount of [^33P] incorporation of a substrate in the presence of the test compound. Standard assay conditions were 5 ng of recombinant B-Raf kinase (Upstate Biotechnology) with 500 ng MEK1(K97R) in assay buffer (8 μM ATP, 0.5 μCi [^33P]ATP (specific activity 3000 Ci/mmol, PerkinElmer), 50 mM Tris/HCl (pH7.5), and 1 mM EGTA, 1 mM Na3VO4, 1% 2-mercaptoethanol, 0.1% Brij 35, and 0.2 mg/ml BSA) in a final volume of 25 μL. Reactions were incubated at 30° C. for 30 min and stopped by adding 3% phosphoric acid, harvested onto a 96-well GF/B UniFilter (PerkinElmer) using a unifilter harvester (PerkinElmer), and counted with a TopCount microplate scintillation counter (PerkinElmer). The IC50 values of inhibitors were determined after carrying out assays at 3-fold serially diluted concentrations of each compound in duplication. The results were analyzed using linear regression software (GraphPad Prism 4; GraphPad Software Inc.).

T1 sequence (P15056 whole entry): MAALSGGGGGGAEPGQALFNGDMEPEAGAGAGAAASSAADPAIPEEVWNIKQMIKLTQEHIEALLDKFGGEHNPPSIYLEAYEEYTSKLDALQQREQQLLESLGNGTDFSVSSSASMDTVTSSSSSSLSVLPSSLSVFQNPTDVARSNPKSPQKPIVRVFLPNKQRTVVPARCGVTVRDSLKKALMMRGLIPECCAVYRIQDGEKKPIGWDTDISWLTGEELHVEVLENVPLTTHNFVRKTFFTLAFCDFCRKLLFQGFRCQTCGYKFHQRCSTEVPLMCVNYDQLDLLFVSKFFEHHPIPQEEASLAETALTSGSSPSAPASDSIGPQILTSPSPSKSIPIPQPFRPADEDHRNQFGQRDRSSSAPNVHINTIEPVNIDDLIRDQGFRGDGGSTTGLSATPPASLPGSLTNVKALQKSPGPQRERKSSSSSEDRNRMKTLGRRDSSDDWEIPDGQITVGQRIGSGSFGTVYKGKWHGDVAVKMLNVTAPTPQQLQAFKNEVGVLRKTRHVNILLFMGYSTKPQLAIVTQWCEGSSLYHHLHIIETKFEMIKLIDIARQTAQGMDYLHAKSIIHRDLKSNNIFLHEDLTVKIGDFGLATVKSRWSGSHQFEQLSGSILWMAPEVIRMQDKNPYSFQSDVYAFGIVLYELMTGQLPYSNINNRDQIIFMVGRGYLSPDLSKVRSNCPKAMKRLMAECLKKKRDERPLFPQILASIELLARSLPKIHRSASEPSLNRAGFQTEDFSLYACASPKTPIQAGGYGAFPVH

IC50 (class symbols) [nM]	IC50 (given as bound) [nM]	Structure (SMILES)
1000 to 10000	–	CCCS(=O)(=O)Nc1ccc(F)c(Nc2ncnc3ccc(-c4ccc[nH]c4=O)cc23)c1F [compound 26, N-(2,4-difluoro-3-(6-(2-oxo-1,2-dihydropyridin-3-yl)quinazolin-4-ylamino)phenyl)propane-1-sulfonamide]
300 to 1000	–	CCCS(=O)(=O)Nc1ccc(F)c(Nc2ncnc3ccc(-c4cccc(N5CCOCC5)n4)cc23)c1F [compound 41, N-(2,4-difluoro-3-(6-(6-morpholinopyridin-2-yl)quinazolin-4-ylamino)phenyl)propane-1-sulfonamide]
300 to 1000	–	CCCS(=O)(=O)Nc1ccc(F)c(Nc2ncnc3ccc(-c4cccnc4C#N)cc23)c1F [compound 64, N-(3-(6-(2-cyanopyridin-3-yl)quinazolin-4-ylamino)-2,4-difluorophenyl)propane-1-sulfonamide]
–	> 10000	CCCS(=O)(=O)Nc1c(F)ccc(Nc2ncnc3ccc(-c4cccnc4F)cc23)c1F [compound 16, N-(2,6-difluoro-3-(6-(2-fluoropyridin-3-yl)quinazolin-4-ylamino)phenyl)propane-1-sulfonamide]
1000 to 10000	–	C#Cc1ccc2ncnc(Nc3c(F)ccc(NS(=O)(=O)CCC)c3F)c2c1 [compound 49, N-(3-(6-ethynylquinazolin-4-ylamino)-2,4-difluorophenyl)propane-1-sulfonamide]
300 to 1000	–	CCCS(=O)(=O)Nc1ccc(F)c(Nc2ncnc3ccc(-c4cccc(N)n4)cc23)c1F [compound 61, N-(3-(6-(6-aminopyridin-2-yl)quinazolin-4-ylamino)-2,4-difluorophenyl)propane-1-sulfonamide]
1000 to 10000	–	CCCS(=O)(=O)Nc1ccc(F)c(Nc2ncnc3cc(OC)c(-c4ccncc4)cc23)c1F [compound 30, N-(2,4-difluoro-3-(7-methoxy-6-(pyridin-4-yl)quinazolin-4-ylamino)phenyl)propane-1-sulfonamide]
300 to 1000	–	CCCS(=O)(=O)Nc1ccc(F)c(Nc2ncnc3ccc(-c4cnc(OC)c(N)c4)cc23)c1F [compound 60, N-(3-(6-(5-amino-6-methoxypyridin-3-yl)quinazolin-4-ylamino)-2,4-difluorophenyl)propane-1-sulfonamide]
1000 to 10000	–	CCCS(=O)(=O)Nc1ccc(F)c(Nc2ncnc3ccc(-c4cccnc4F)cc23)c1 [compound 6, N-(4-fluoro-3-(6-(2-fluoropyridin-3-yl)-quinazolin-4-ylamino)phenyl)propane-1-sulfonamide]
–	> 10000	CCCS(=O)(=O)Nc1ccc(F)c(Nc2ncnc3ccc(-c4c[nH]nn4)cc23)c1F [compound 52, N-(3-(6-(1H-1,2,3-triazol-4-yl)quinazolin-4-ylamino)-2,4-difluorophenyl)propane-1-sulfonamide]
300 to 1000	–	CCCS(=O)(=O)Nc1ccc(F)c(Nc2ncnc3ccc(-c4ccc(OCCOC)nc4)cc23)c1F [compound 33, N-(2,4-difluoro-3-(6-(6-(2-methoxyethoxy)pyridin-3-yl)quinazolin-4-ylamino)phenyl)propane-1-sulfonamide]
1000 to 10000	–	CC(C)S(=O)(=O)Nc1ccc(F)c(Nc2ncnc3ccc(-c4cccnc4F)cc23)c1F [compound 20, N-(2,4-difluoro-3-(6-(2-fluoropyridin-3-yl)quinazolin-4-ylamino)phenyl)propane-2-sulfonamide]
1000 to 10000	–	CCCS(=O)(=O)Nc1ccc(F)c(Nc2ncnc3ccc(N4CCOCC4)cc23)c1F [compound 42, N-(2,4-difluoro-3-(6-morpholinoquinazolin-4-ylamino)phenyl)propane-1-sulfonamide]
300 to 1000	–	CCCS(=O)(=O)Nc1ccc(F)c(Nc2ncnc3ccc(-c4cccnc4F)c(F)c23)c1F [compound 56, N-(2,4-difluoro-3-(5-fluoro-6-(2-fluoropyridin-3-yl)quinazolin-4-ylamino)phenyl)propane-1-sulfonamide]
–	> 10000	CCCS(=O)(=O)Nc1ccc(F)c(Nc2ncnc3cc(NCCN(C)C)c(-c4ccncc4)cc23)c1F [compound 22, N-(3-(7-(2-(dimethylamino)ethylamino)-6-(pyridin-4-yl)quinazolin-4-ylamino)-2,4-difluorophenyl)propane-1-sulfonamide]
–	> 10000	CCCS(=O)(=O)Oc1ccc(F)c(Nc2ncnc3ccc(-c4cccnc4F)cc23)c1F [compound 40, 2,4-difluoro-3-(6-(2-fluoropyridin-3-yl)quinazolin-4-ylamino)phenyl propane-1-sulfonate]

Further lines, the compound ahead of its results:

Structure (SMILES)	IC50 (class symbols) [nM]	IC50 (given as bound) [nM]
CCCS(=O)(=O)Nc1ccc(F)c(Nc2ncnc3ccc(-n4ccnc4)cc23)c1F [compound 43, N-(3-(6-(1H-imidazol-1-yl)quinazolin-4-ylamino)-2,4-difluorophenyl)propane-1-sulfonamide]	1000 to 10000	–
CCS(=O)(=O)Nc1ccc(F)c(Nc2ncnc3ccc(-c4cccnc4F)cc23)c1F [compound 19, N-(2,4-difluoro-3-(6-(2-fluoropyridin-3-yl)quinazolin-4-ylamino)phenyl)ethanesulfonamide]	1000 to 10000	–
CS(=O)(=O)Nc1ccc(F)c(Nc2ncnc3ccc(-c4cccnc4F)cc23)c1F [compound 10, N-(2,4-difluoro-3-(6-(2-fluoropyridin-3-yl)quinazolin-4-ylamino)phenyl)methanesulfonamide]	1000 to 10000	–
CCCS(=O)(=O)N(C)c1ccc(F)c(N(C)c2ncnc3ccc(-c4cccnc4F)cc23)c1F [compound 53, N-(2,4-difluoro-3-((6-(2-fluoropyridin-3-yl)-quinazolin-4-yl)(methyl)amino)phenyl)-N-methylpropane-1-sulfonamide]	300 to 1000	–
CCCS(=O)(=O)Nc1ccc(F)c(Nc2ncnc3ccc(-c4cnc(N)c(C)c4)cc23)c1F [compound 67, N-(3-(6-(6-amino-5-methylpyridin-3-yl)quinazolin-4-ylamino)-2,4-difluorophenyl)propane-1-sulfonamide]	300 to 1000	–
CCCS(=O)(=O)Nc1c(F)ccc(Nc2ncnc3ccc(-c4ccncc4)cc23)c1F [compound 17, N-(2,6-difluoro-3-(6-(pyridin-4-yl)quinazolin-4-ylamino)phenyl)propane-1-sulfonamide]	1000 to 10000	–
CCCS(=O)(=O)Nc1ccc(F)c(Nc2ncnc3ccc(-n4cnc5ccccc54)cc23)c1F [compound 47, N-(3-(6-(1H-benzo[d]imidazol-1-yl)-quinazolin-4-ylamino)-2,4-difluorophenyl)propane-1-sulfonamide]	–	> 10000
CCCS(=O)(=O)Nc1ccc(F)c(Nc2ncnc3ccc(-c4cncc(C(F)(F)F)c4)cc23)c1F [compound 65, N-(2,4-difluoro-3-(6-(5-(trifluoromethyl)pyridin-3-yl)quinazolin-4-ylamino)phenyl)propane-1-sulfonamide]	300 to 1000	–
O=S1(=O)CCCN1c1ccc(F)c(Nc2ncnc3ccc(-c4cccnc4F)cc23)c1F [compound 55, N-(2,4-difluoro-3-(6-(2-fluoropyridin-3-yl)quinazolin-4-ylamino)phenyl)propanesultam]	–	> 10000
CCCS(=O)(=O)Nc1ccc(F)c(Oc2ncnc3ccc(-c4cccnc4F)cc23)c1F [compound 34, N-(2,4-difluoro-3-(6-(2-fluoropyridin-3-yl)-quinazolin-4-yloxy)phenyl)propane-1-sulfonamide]	300 to 1000	–
CCCS(=O)(=O)Nc1ccc(F)c(Nc2ncnc3ccc(-c4cccnc4OC)cc23)c1F [compound 23, N-(2,4-difluoro-3-(6-(2-methoxypyridin-3-yl)quinazolin-4-ylamino)phenyl)propane-1-sulfonamide]	1000 to 10000	–
CCCS(=O)(=O)Nc1ccc(F)c(Nc2ncnc3ccc(-c4cccnc4)cc23)c1F [compound 5, N-(2,4-difluoro-3-(6-(pyridin-3-yl)-quinazolin-4-ylamino)phenyl)propane-1-sulfonamide]	–	> 10000
CCCS(=O)(=O)Nc1cc(Nc2ncnc3ccc(-c4cccnc4F)cc23)c(F)cc1F [compound 11, N-(2,4-difluoro-5-(6-(2-fluoropyridin-3-yl)-quinazolin-4-ylamino)phenyl)propane-1-sulfonamide]	–	> 10000
